Assay [1] concerns P. falciparum. As to the kind of experiment: In vitro parasite growth inhibition, SYBR Green I-based fluorescence assay for parasite nucleic acid. The assay is classed as cell-based. Particulars: Plasmodium falciparum, 72 h; 3 days culture; read-out: In vitro growth inhibitory IC50.
In assay [2] the test system is P. falciparum. As to the kind of experiment: In vitro parasite growth inhibition by combinations of two PSAC antagonists (isobologram).
Experimental: Parasite killing by identified PSAC antagonists was evaluated using a SYBR Green I-based fluorescence assay for parasite nucleic acid in 96-well format. […] Cultures were maintained for 3 days at 37° C. in 5% 02, 5% CO2. […] For each antagonist concentration, the mean of triplicate measurements was calculated after subtraction of background fluorescence from cultures killed by 20 μM chloroquine, a known antimalarial agent.
The solid line represents the line of additive killing.
Where [3] appears, read: in combination with compound 24 (Comp. A).
Where [4] appears, read: in combination with compound 11 (Comp. A).
[5] abbreviates: in combination with compound 26 (Comp. A).
[6] abbreviates: in combination with compound 31 (Comp. A).

Molecules are shown by their SMILES. A value given as a limit tells only on which side of the number the result lay.

In the case of `Cc1cccc(N2CCN(C(=O)c3ccc4c(c3)NC(=O)c3ccccc3S4)CC2)c1C` [Compound 2], in assay [1], the IC50 – broadly, the concentration that inhibits the measured activity by half – turned out to be 1 µM.

`CCCCCn1c(=O)c2nc(-c3ccc(OC)cc3)oc2c2ccccc21` [Compound 34]: in assay [1], the IC50 came out at 15 µM.

As for `Cc1ccc(C)c(N2CCN(C(=O)c3ccc4c(c3)NC(=O)c3ccccc3S4)CC2)c1` [Compound 5], in assay [1], the 50% inhibitory concentration (IC50) worked out at 1.33 µM.

As for `CCCN(C(=O)c1cc2cc3ccc(C)cc3nc2o1)c1cccc(C)c1` [Compound 26], the IC50 in assay [1] was 6.9 µM.

`COc1cc(OC)nc(Sc2ccc(NC(=O)c3ccc(C(C)(C)C)cc3)cc2)n1` [Compound 36]: the “parasite killing by combination” value in assay [2] (setting [3]) is recorded as “S”.

On to `COc1ccc(OCC(=O)Nc2ccc(-c3nn4c(C)nnc4s3)cc2)cc1` [Compound 16], for which the IC50 in assay [1] worked out at 4.98 µM. For the same compound, the “parasite killing by combination” value in assay [2] (setting [3]) and in assay [2] (in combination with compound 35 (Comp. A)) was “S” in each case.

For `CCc1nnc2sc(-c3ccc(NC(=O)c4ccc(N5CCCC5)c([N+](=O)[O-])c4)cc3)nn12` [Compound 17], the IC50 in assay [1] was found to be 39 µM.

On to `COc1ccc(-c2nc3c(=O)[nH]c4ccccc4c3s2)cc1` [Compound 32], for which, in assay [1], the 50% inhibitory concentration (IC50) came to 3 µM.

`Cc1cc(-c2nn3c(C)nnc3s2)ccc1NC(=O)C(C)C` [Compound 23]: the concentration for half-maximal inhibition (IC50) in assay [1] came to 36.7 µM.

As for `CCCCOc1ccc(C(=O)Nc2ccc(-c3nn4c(C)nnc4s3)cc2)cc1` [Compound 18], the concentration for half-maximal inhibition (IC50) in assay [1] was determined as 2.14 µM. In assay [2] (in combination with compound 24 (component A antagonist), mixtures producing 50% parasite killing), the “parasite killing by combination, isobologram (FIG. 3C)” value was “synergistic parasite killing”.

With `O=C1Nc2cc(C(=O)N3CCC(N4CCCCC4)CC3)ccc2Sc2ccccc21` [Compound 9], the IC50 in assay [1] amounted to 6.9 µM.

`COc1ccc(-c2nc3c(=O)n(C)c4ccccc4c3o2)cc1` [Compound 33]: the IC50 in assay [1] was more than 20 µM.

In the case of `CCCCCC(=O)Nc1cc(-c2nn3c(C)nnc3s2)ccc1C` [Compound 22], the IC50 in assay [1] amounted to 21.5 µM.

`Cc1cc(-c2nn3c(C)nnc3s2)ccc1NC(=O)c1ccco1` [Compound 20]: in assay [1], the IC50 was 21.6 µM.

In the case of `O=C(COc1ccc2ccccc2c1)Nc1cccc(-c2nc3ncccc3o2)c1` [Compound 15], the 50% inhibitory concentration (IC50) in assay [1] was determined as 6 µM.

On to `COc1ccc2cc3cc(C(=O)N(C)C4CCCCC4)oc3nc2c1` [Compound 25], for which the IC50 in assay [1] is 4 µM. The “parasite killing by combination” value in assay [2] (setting [4]), in assay [2] (setting [3]), in assay [2] (setting [5]) and in assay [2] (setting [6]) was “S” in each case.

In the case of `Cc1nnc2sc(-c3ccc(NC(=O)c4ccc(Br)o4)cc3)nn12` [Compound 19], the IC50 in assay [1] worked out at 2.74 µM.

Regarding `CCC(Cc1ccccc1)NC(=O)c1ccc2c(c1)NC(=O)c1ccccc1S2` (stereo not shown) [Compound 11], the IC50 in assay [1] worked out at 3 µM.

Take `CCOc1ccc(C(=O)Nc2ccc(-c3nn4c(C)nnc4s3)cc2)cc1` [Compound 13]: the IC50 in assay [1] amounted to 3.85 µM. Also, the “parasite killing by combination” value in assay [2] (setting [4]), in assay [2] (setting [3]), in assay [2] (setting [5]), in assay [2] (setting [6]), in assay [2] (in combination with compound 32 (Comp. A)) and in assay [2] (in combination with compound 33 (Comp. A)) was “S” in each case. For the same compound, the “parasite killing by combination” value in assay [2] (in combination with compound 34 (Comp. A)) was “S”.

For the compound `O=C(Nc1ccc(-c2noc(-c3cccs3)n2)cc1)c1cccnc1` [Compound 21], the IC50 in assay [1] was found to be 10 µM. Also, the “parasite killing by combination” value in assay [2] (setting [3]) is reported as “S”.

For `O=C1Nc2cc(C(=O)N3CCN(c4ccccc4)CC3)ccc2Sc2ccccc21` [Compound 3], the IC50 in assay [1] was 0.67 µM.

On to `O=C1Nc2cc(C(=O)N3CCC(Cc4ccccc4)CC3)ccc2Sc2ccccc21` [Compound 10], for which the IC50 in assay [1] came out at 3.01 µM.

The values above are taken from patent US20230346797A1, “INHIBITORS OF THE PLASMODIAL SURFACE ANION CHANNEL AS ANTIMALARIALS” (The United States of America,as represented by the …, priority 2008, published 2023).
